Reference: patent US7019144B2, “1,2,4-Triazole derivative, method for preparing the same, and pharmaceutical composition containing the same” (CJ Corp., priority 2002, dated 2006)

Experiments:
[1] = target: T1, COX-2 (Mus musculus, UniProt Q05769); experiment: Assay for the COX-2 inhibitory activity using RAW 264.7 cell line (PGE2, interferon γ/LPS induced); type: cell-based; details: for COX-2 inhibitory activity in comparison with the reference (Valdecoxib): 10 nM, RAW 264.7, comparison in words; for inhibition at 0.01 µM: RAW264.7, 10 nM test compound, RAW 264.7 cells, interferon γ + LPS, 18 hours, PGE2, read-out: Cyclooxygenase (COX) Inhibition (%) COX-2 (10 nM); for selectivity (COX-2 over COX-1): judged from Table 1, in words
T1 construct: host or cells: RAW 264.7 cells, aspirin-pretreated, then induced with interferon gamma and LPS
T1 sequence (Q05769 18-604): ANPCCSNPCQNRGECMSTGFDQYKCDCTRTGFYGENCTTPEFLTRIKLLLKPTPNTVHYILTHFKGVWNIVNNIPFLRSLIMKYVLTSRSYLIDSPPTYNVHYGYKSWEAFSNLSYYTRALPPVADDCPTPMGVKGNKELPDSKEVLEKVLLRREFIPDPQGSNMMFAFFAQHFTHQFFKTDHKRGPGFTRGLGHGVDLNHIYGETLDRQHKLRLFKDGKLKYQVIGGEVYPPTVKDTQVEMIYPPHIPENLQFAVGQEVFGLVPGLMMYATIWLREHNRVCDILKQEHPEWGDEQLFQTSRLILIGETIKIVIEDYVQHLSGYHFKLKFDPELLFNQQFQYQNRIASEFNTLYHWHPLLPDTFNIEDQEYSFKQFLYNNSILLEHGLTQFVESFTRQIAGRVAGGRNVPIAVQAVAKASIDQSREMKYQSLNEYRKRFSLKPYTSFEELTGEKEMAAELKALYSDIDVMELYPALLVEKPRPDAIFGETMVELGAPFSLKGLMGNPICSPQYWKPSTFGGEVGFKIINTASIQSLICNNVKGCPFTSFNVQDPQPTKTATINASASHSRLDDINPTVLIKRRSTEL
Description: Each well was treated with 250 μM of aspirin and incubated at 37° C. for 2 hours. […] Then, each well was treated with interferon γ (100 units/ml) and Iipopolysaccharide (LPS, 100 ng/ml) and incubated for 18 hours. The culture media were transferred to another test tubes. The concentration of PGE2 was quantified by means of the EIA kit (Cayman Chemicals).
(§1) The percentages of the COX inhibition were calculated according to the following equation: % Inhibition=(concentration of PGE2 in test compound-untreated sample−concentration of PGE2 in test compound-treated sample)/(concentration of PGE2 in test compound-untreated sample)×100

[2] = target: T2, COX-1 (Homo sapiens, UniProt P23219); experiment: Assay for the COX-1 inhibitory activity using U-937 (PGE2 inhibition); type: cell-based; details: for inhibition at 1 µM: 1 μM test compound, U-937 human lymphoma cells, PGE2 inhibition vs DMSO, read-out: Cyclooxygenase (COX) Inhibition (%) COX-1 (1 μM); for COX-1 inhibitory activity in comparison with the reference (Valdecoxib): 1 μM, U-937, comparison in words
T2 construct: host or cells: U-937 human lymphoma cells
T2 sequence (P23219 24-599): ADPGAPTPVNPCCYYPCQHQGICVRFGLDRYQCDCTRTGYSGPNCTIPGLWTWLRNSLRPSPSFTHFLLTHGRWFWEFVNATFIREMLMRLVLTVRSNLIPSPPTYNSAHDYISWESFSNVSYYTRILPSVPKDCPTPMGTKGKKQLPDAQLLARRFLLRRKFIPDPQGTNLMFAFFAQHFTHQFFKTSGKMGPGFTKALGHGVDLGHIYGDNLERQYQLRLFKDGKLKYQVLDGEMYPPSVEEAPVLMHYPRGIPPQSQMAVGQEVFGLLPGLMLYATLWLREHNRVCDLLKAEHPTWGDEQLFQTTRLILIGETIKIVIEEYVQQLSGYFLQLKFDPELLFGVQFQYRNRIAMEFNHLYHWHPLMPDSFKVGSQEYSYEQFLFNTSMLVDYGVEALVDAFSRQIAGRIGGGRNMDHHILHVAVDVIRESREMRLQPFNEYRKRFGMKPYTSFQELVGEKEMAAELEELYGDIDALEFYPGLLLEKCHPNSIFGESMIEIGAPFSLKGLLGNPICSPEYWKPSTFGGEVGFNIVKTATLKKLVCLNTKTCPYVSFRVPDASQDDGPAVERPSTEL
Description: The collected cells were diluted with HBSS (×1, Hank's balanced salt solution) to a concentration of 1×10^6 cells/ml. 1 ml of the dilute cell solution was placed into each well of 12-well plates. 5 μl of 1 μM solution of a test compound in DMSO and 5 μl of DMSO as a control were added to the wells. The wells were incubated in CO2 incubator at 37° C. for 15 minutes. Separately, 10 mM stock solution of arachidonic acid in ethanol was diluted ten times in ethanol to prepare 1 mM solution of arachidonic acid. Arachidonic acid acts as a substrate. 10 μl of the 1 mM solution of arachidonic acid was added to each well and incubated at CO2 incubator at 37° C. for 30 minutes. The cell solution of each well was placed in a centrifuge test tube and centrifuged at 10,000 rpm at 4° C. for 5 minutes. The concentration of PGE2 in the collected cells and the supernatant was quantified by means of a monoclonal kit (Cayman Chemicals). The percentages of PGE2 inhibition in a group of the test compound-treated cells in relation to a group of the DMSO-treated cells were calculated. Based on the calculated values, the COX-1 inhibitory activities were evaluated.
as §1

[3] = test system: carrageenan-induced paw edema; experiment: Carrageenan-induced paw edema test in rats; type: in vivo; details: for Inhibitory effect (% inhibition): oral administration, foot swelling 3 hours after carrageenan injection vs control
Description: 2. Carrageenan-induced Paw Edema Test in Rats
The day before the test date, rats were selected in each group so that the average body weight was as close as possible, and the rats were fasted by feed withdrawal prior to the test. At the test date, the rats were orally administered with the test compounds and a control material. After 1 hour, the volume (V0h) of a predetermined portion of the left hind foot of the rats was measured with a plethysmometer. 100 μl of 1% carrageenan solution was subcutaneously injected to the left hind foot of the rats using a syringe with 1 ml capacity. Three hours after the injection of the carrageenan, the volume (V3h) of the predetermined portion of the foot was again measured. The foot swelling variation […] in a group of test compound-treated rats was compared with that of a group of control material-treated rats. With the supposition of 0% inhibition by the control (control material-treated rats), the inhibition percentage of edema of each test compound was determined.

Row | SMILES | COX-2 inhibitory activity in comparison with the reference (Valdecoxib) [1] | inhibition at 0.01 µM [1] [%] | selectivity (COX-2 over COX-1) [1] | inhibition at 1 µM [2] [%] | COX-1 inhibitory activity in comparison with the reference (Valdecoxib) [2] | Inhibitory effect (% inhibition) [3] [% inhibition] | COX inhibitory effect (paw edema % inhibition) in comparison with Celecoxib ([3]; oral, comparison in words)
1 | COc1ccc(-c2nc(C(F)(F)F)nn2-c2ccc(S(C)(=O)=O)cc2)cc1 [Example 28, 1-(4-methanesulfonylphenyl)-5-(4-methoxyphenyl)-3-trifluoromethyl-1H-[1,2,4]triazole] | remarkably enhanced | 28.6 | excellent selectivities | 10.1 | the same as or lower | 23.3 | 
2 | CS(=O)(=O)c1ccc(-n2nc(C(F)(F)F)nc2-c2ccc(Br)cc2)cc1 [Example 27, 5-(4-bromophenyl)-1-(4-methanesulfonylphenyl)-3-trifluoromethyl-1H-[1,2,4]triazole] |  | 16 |  | 13.8 |  | 21.7 | 
3 | COc1ccc(/C=C/c2nc(C(F)(F)F)nn2-c2ccc(S(C)(=O)=O)cc2)cc1 [Example 34, 5-[2-(4-methoxyphenyl)vinyl]-1-(4-methanesulfonylphenyl)-3-trifluoromethyl-1H-[1,2,4]triazole] |  | 26.8 |  | 23.5 |  | 19.3 | 

Continued, in another order:

Row | COX-2 inhibitory activity in comparison with the reference (Valdecoxib) [1] | inhibition at 0.01 µM [1] [%] | selectivity (COX-2 over COX-1) [1] | inhibition at 1 µM [2] [%] | COX-1 inhibitory activity in comparison with the reference (Valdecoxib) [2] | SMILES | Inhibitory effect (% inhibition) [3] [% inhibition] | COX inhibitory effect (paw edema % inhibition) in comparison with Celecoxib ([3]; oral, comparison in words)
4 | remarkably enhanced | 33.6 | excellent selectivities | 14.6 | the same as or lower | CS(=O)(=O)c1ccc(-n2nc(C(F)(F)F)nc2-c2ccc(Br)cc2)nc1 [Example 45, 2-[5-(4-bromophenyl)-3-trifluoromethyl-[1,2,4]triazol-1-yl]-5-methanesulfonyl pyridine] | 21.6 | 
5 | remarkably enhanced | 38.6 | excellent selectivities | 11.8 | the same as or lower | CCOc1ccc(-c2nc(C(F)(F)F)nn2-c2ccc(S(C)(=O)=O)cc2)cc1 [Example 35, 5-(4-ethoxyphenyl)-1-(4-methanesulfonylphenyl)-3-trifluoromethyl-1H-[1,2,4]triazole] | 32.3 | remarkably improved
